# Assay results from US20080300276A1, “Heterocyclic Carboxylic Acide Amide Derivatives” (priority 2004, published 2008).
# Like-named read-outs stand apart in the source and are kept apart here. Marks after values point to notes of the source that are not given here.
# Columns and labels:
# [1] = molecular target: T1, NR2B containing NMDA receptors (Rattus norvegicus, UniProt P35439+Q00960); assay: NMDA antagonist potency by fluorimetric intracellular calcium measurement in rat cortical cell culture; format: cell-based; settings: fluorimetric method, 40 μM NMDA
# T1 construct: primary neocortical cell cultures derived from 17 day old Charles River rat embryos; endogenous in cells; host or cells: primary rat embryonic (E17) neocortical cell culture, 3-7 days in vitro
# Experimental: Assessment of NMDA Antagonist Potency In Vitro by Measurement of Intracellular Calcium Concentration with a Plate Reader Fluorimeter in Rat Cortical Cell Culture
# The intracellular calcium measurements were carried out on primary neocortical cell cultures derived from 17 day old Charles River rat embryos (for the details on the preparation of neocortical cell culture see Johnson, M. I.; Bunge, R. P. (1992): Primary-cell cultures of peripheral and central neurons and glia. In: Protocols for Neural Cell Culture, eds: Fedoroff, S.; Richardson A., The Humana Press Inc., 51-75. After isolation the cells were plated onto standard 96-well microplates and the cultures were maintained in an atmosphere of 95% air-5% CO2 at 37° C. until the calcium measurements.
# The cultures were used for the intracellular calcium measurements after 3-7 days in vitro. The cells at this in vitro age are believed to express predominantly NR2B containing NMDA receptors [Mol. Pharmacol. 45, 846-853. (1994)]. Before the measurement the cells were loaded with a fluorescent Ca^2+-sensitive dye, Fluo-4/AM (2 μM). To stop the loading the cells were washed twice with the solution used for the measurement (140 mm NaCl, 5 mM KCl, 2 mM CaCl2, 5 mM HEPES, 5 mM HEPES-Na, 20 mM glucose, 10 mM glycine, pH=7.4). After washing the test compounds were added to the cells in the above solution (90 μl/well). Intracellular calcium measurements were carried out with a plate reader fluorimeter: elevation of Fluo-4-fluorescence and so, intracellular calcium concentration was induced by application of 40 μM NMDA. Inhibitory potency of the test compounds was assessed by measuring the reduction in the calcium elevation in the presence of different concentrations of the compounds.
# (§1) Dose-response curves and IC50-values were calculated using data derived from at least three independent experiments. Inhibitory potency of a compound at a single concentration point was expressed as percent inhibition of the NMDA response. Sigmoidal concentration-inhibition curves were fit to the data and IC50 values were determined as the concentration that produces half of the maximal inhibition caused by the compound.
# [2] = tested on: formalin response (licking/biting of the injected paw); assay: Mouse formalin test (second phase); format: in vivo; settings: for ED50: Mus musculus, read-out: Formalin ED50
# Experimental: Injection of diluted formalin into the hind paw of rats or mice is known to elicit a biphasic pain-related behaviour measured as time spent by licking/biting of the injured paw. The second phase is generally defined as pain related events detected in the 15-60 min. time interval ater formalin injection, with peak activity at around 30 min. It is known that NMDA receptors are involved in the second phase of response to formalin injection and this behavioural response is sensitive to blockade of NMDA receptors [Dickenson, A. and Besson J.-M. (Editors): Chapter 1, pp. 6-7: Animal models of Analgesia; and Chapter 8, pp. 180-183: Mechanism of Central Hypersensitivity: Excitatory Amino Acid Mechanisms and Their Control—In Pharmacology of Pain. Springer-Verlag (Berlin) 1997.] Therefore, we used the second phase of formalin test to characterize the efficacy of compounds in vivo. Inhibition of the second phase of response is considered to indicate an analgesic effect against chemically-induced persistent pain [Hunskaar, S., et al.: Formalin Test in Mice, a Useful Technique for Evaluating Mild Analgesics, Journal of Neuroscience Methods, 14 (1985) 69-76.]
# Male albino Charles River NMRI mice (20-25 g) were used. Prior to the experiment any solid food was withdrawn for approx. 16 hours but the animals had free access to 20% glucose solution. The animals were allowed 1 hour acclimatization period in a glass cylinder (cc. 15 cm in diameter), then moved to an identical cylinder with a mirror placed behind to facilitate observation. The test substances were suspended in 5% tween-80 (10 ml per kg body weight) and administered orally by gavage 15 min before the formalin injection (20 μl of 1% formalin in 0.9% saline injected subcutaneously into the dorsal surface of the right hindpaw). The time spent by licking and biting of the injected paw was measured from 20 to 25 min. after the formalin injection.
# [3] = molecular target: T2, recombinant NMDA receptors NR1/NR2A (Homo sapiens, UniProt Q05586+Q12879); assay: Inhibition of NMDA evoked cytosolic calcium elevations in transfected HEK293 cells; format: cell-based; settings: for inhibition at 10 µM / inhibition at 15 µM: HEK293; for inhibition at 10 µM: read-out: NR1-3/NR2A % inhibition at 10 μM
# T2 construct: expressed in transfected cells
# Experimental: (1997); Neurochemistry International, 43, 19-29. (2003)]. […] Compounds were tested for their inhibitory action on NMDA evoked cytosolic calcium elevations in fluorescent calcium measurements. Studies were performed 48-72 h after addition of the inducing agent. Ketamine ([…] was also present during the induction in order to prevent cytotoxicity.
# as §1
# [4] = tested on: locomotor activity; settings: cited from earlier work; for effect on locomotor activity (in words): animal behavioural studies
# [5] = tested on: spontaneous locomotor activity; assay: Spontaneous locomotor activity (LMA) in mice; format: in vivo, mouse; settings: for locomotor stimulation relative to analgesic dose range (in words): mouse, in vivo
# Experimental: Male NMRI mice weighing 20-22 g were used in the experiments.
# Spontaneous locomotor activity was measured in a four-channel activity monitor. The apparatus consisted of acrylic cages. (43 cm×43 cm×32 cm) equipped with 2×16 pairs of photocells along all the bottom axis of the cage. An additional array of photocells (16 pairs) was placed along two opposite sides of the cage at the height of 10 cm in order to detect rearing responses.
# Experimental groups consisted of 10 animals. Thirty minutes after the oral administration of the test compound or vehicle (tween-80), the animals were individually placed in one of four cages for one hour. Horizontal and vertical movements were determined as the number of beam interruptions for one hour at 15 min intervals.
# Mean ±SE of horizontal activity data of each group was calculated then percentual changes compared to the control (vehicle-treated) group were determined. A compound was considered to cause locomotor stimulation when its effect exceeded 50% increase in beam interruptions. Consequently, doses defined as free of stimulatory action (UM) produced less than 50% increase.
# [6] = read-out: rat cortical cells IC50
# [7] = oral, 15 min before formalin, licking time 20 to 25 min
# [8] = read-out: Rat cortical cells (NR2B) appr. IC50
# T1 sequence (Q00960 27-1482, other chains not shown): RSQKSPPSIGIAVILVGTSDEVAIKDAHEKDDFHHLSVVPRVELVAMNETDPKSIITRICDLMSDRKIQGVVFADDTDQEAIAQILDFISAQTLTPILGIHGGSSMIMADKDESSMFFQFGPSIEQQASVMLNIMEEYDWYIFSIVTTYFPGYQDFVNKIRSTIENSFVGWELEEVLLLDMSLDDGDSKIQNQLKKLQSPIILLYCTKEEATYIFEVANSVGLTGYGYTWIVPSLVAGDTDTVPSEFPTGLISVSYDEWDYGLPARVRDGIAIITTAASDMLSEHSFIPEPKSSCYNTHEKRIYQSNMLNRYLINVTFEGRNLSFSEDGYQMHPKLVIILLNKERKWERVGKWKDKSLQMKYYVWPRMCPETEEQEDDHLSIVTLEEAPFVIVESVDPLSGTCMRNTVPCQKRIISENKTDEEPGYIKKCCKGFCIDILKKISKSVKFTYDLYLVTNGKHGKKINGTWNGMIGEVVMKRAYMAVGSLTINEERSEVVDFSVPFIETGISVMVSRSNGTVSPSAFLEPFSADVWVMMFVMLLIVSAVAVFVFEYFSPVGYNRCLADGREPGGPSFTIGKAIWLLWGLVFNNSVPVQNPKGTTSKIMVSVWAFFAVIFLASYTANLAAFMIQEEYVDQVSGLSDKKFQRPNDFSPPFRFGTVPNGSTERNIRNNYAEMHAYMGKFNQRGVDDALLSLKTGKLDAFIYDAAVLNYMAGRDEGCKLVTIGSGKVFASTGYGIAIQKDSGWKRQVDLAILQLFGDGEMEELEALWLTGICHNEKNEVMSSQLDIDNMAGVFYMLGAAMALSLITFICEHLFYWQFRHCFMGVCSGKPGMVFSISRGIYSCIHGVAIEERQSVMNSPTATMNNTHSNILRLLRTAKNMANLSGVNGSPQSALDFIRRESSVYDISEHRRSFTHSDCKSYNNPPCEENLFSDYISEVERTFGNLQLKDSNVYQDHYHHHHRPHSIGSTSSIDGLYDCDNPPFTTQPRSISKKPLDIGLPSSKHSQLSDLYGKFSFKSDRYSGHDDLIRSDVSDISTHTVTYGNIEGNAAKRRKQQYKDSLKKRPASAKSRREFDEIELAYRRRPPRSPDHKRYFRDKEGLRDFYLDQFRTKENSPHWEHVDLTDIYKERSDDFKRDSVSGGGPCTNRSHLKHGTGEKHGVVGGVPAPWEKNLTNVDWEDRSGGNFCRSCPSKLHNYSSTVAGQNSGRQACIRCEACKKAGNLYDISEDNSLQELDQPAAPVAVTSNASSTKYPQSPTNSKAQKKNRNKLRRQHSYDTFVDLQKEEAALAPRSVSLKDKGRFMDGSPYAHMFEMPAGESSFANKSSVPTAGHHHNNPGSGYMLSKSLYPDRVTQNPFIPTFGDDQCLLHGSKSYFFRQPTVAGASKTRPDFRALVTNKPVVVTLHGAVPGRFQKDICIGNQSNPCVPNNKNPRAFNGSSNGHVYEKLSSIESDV
# T2 sequence (Q12879 23-1464, other chains not shown): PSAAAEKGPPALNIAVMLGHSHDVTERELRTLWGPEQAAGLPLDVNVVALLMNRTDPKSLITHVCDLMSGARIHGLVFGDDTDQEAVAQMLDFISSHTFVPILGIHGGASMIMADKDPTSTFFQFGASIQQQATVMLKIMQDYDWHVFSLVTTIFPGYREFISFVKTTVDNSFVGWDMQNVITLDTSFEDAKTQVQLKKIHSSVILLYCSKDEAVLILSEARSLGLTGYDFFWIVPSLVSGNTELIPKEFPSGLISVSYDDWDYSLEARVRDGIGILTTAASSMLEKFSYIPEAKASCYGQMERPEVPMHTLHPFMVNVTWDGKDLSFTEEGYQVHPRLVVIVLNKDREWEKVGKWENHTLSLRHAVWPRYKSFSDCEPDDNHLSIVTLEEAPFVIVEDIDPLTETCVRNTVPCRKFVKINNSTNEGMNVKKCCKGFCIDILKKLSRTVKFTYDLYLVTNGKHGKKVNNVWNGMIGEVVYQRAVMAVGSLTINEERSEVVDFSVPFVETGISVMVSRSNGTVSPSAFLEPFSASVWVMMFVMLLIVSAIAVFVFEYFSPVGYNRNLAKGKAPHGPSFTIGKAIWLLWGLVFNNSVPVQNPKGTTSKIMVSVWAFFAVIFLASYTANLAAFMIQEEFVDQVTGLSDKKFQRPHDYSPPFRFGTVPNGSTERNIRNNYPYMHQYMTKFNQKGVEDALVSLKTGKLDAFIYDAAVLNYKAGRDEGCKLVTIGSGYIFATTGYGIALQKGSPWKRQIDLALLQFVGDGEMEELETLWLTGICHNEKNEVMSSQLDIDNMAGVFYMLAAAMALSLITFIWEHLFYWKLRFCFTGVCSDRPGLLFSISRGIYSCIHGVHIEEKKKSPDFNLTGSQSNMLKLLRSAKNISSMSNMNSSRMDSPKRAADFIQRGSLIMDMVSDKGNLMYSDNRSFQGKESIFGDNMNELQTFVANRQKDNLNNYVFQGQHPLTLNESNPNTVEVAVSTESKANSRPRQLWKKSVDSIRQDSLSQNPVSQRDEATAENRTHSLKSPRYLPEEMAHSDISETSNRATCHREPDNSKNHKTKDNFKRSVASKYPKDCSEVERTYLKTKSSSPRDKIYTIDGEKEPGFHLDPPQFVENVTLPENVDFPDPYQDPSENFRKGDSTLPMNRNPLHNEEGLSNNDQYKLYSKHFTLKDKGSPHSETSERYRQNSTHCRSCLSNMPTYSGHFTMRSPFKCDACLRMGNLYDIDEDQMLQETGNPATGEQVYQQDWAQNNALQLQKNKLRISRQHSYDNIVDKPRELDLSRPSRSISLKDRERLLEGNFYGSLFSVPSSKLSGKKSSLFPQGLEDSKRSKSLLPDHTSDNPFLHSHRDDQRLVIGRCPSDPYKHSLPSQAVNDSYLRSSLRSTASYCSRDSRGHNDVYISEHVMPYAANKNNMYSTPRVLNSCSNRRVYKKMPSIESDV
compound,measurement,setting,value
"C[C@@H](CN1CCC(Cc2ccccc2)CC1)[C@@H](O)c1ccc(O)cc1 (relative stereo) [Ro 25-6981, R-(R*,S*)-1-(4-hydroxyphenyl)-2-methyl-3-[4-(phenylmethyl)piperidin-1-yl]-1-propanol]",IC50,[1]; [6],0.159 µM
same,Formalin ED50,[2]; [7],>20* mg/kg
same,NR1-3/NR2A % inhibition at 10 μM,[3],1.0%
same,effect on locomotor activity (in words),[4],increase locomotor activity
same,effect on locomotor activity (in words),[4]; listed as Ro 256981,no such effect was observed
"O=c1[nH]c2ccc([S+]([O-])CCN3CCC(Cc4ccc(F)cc4)CC3)cc2o1 (stereo not drawn) [CI-1041, 6-{2-[4-(4-fluoro-benzyl)-piperidin-1-yl]-ethanesulfinyl}-3H benzooazol-2-one]",LMA % increase,[5]; dose 10 mg/kg oral,137%
same,locomotor stimulation relative to analgesic dose range (in words),[5],no separation between the doses causing analgesia and those stimulating locomotor activity
same,ED50,[2]; [7],2.4 mg/kg
same,inhibition at 10 µM,[3],21%
"C[C@@H]([C@@H](O)c1ccc(O)cc1)N1CCC(O)(c2ccccc2)CC1 [CP-101,606]",Formalin ED50,[2]; [7],>20* mg/kg
same,NR1-3/NR2A % inhibition at 10 μM,[3],2.5%
same,effect on locomotor activity (in words),[4],no such effect was observed
same,dose up to which locomotor stimulating effect is lacking,[4]; i.p.,≤ 100 mg/kg
same,dose up to which locomotor stimulating effect is lacking,[4]; s.c.,up to 56 mg/kg
"Cc1ccc(CC2(O)CCN(CCOc3ccc(O)cc3)CC2)cc1 [Co-101244, 1-[2-(4-hydroxyphenoxy)ethyl]-4-hydroxy-4-(4-methylbenzyl)piperidine]",inhibition at 10 µM,[3],-8.7%
O=C(CCN1CCC(Cc2ccc(F)cc2)CC1)c1ccc2[nH]c(=O)oc2c1 [EMD 95885],IC50,[1]; [6],0.035 µM
same,NR1-3/NR2A % inhibition at 10 μM,[3],0.1%
"O=C(c1nc2ccc(O)cc2[nH]1)N1CCC(=Cc2ccccc2)CC1 [Example 1, (4-Benzylidene-piperidine-1-yl)-(6-hydroxy-1H-benzoimidazol-2-yl)-methanone]",LMA % increase,[5]; dose 15 mg/kg oral,27%
same,LMA % increase,[5]; dose 30 mg/kg oral,63%
same,IC50,[1]; [8],< 0.05 µM
same,ED50,[2]; [7],2.6 mg/kg
same,inhibition at 15 µM,[3],33%
"Cc1ccc(C=C2CCN(C(=O)c3nc4ccc(O)cc4[nH]3)CC2)cc1 [Example 2, (6-Hydroxy-1H-benzoimidazol-2-yl)-[4-(4-methyl-benzylidene)-piperidine-1-yl]-methanone]",IC50,[1]; [8],< 0.05 µM
same,inhibition at 15 µM,[3],34%
"O=C(c1nc2ccc(O)cc2[nH]1)N1CCC(=Cc2ccc(F)cc2)CC1 [Example 3, [4-(4-Fluoro-benzylidene)-piperidine-1-yl]-(6-hydroxy-1H-benzoimidazol-2-yl)-methanone]",IC50,[1]; [8],< 0.05 µM
same,inhibition at 15 µM,[3],< 30%
"O=C(c1nc2ccc(O)cc2[nH]1)N1CCC(=Cc2ccc(Cl)cc2)CC1 [Example 4, [4-(4-Chloro-benzylidene)-piperidine-1-yl]-(6-hydroxy-1H-benzoimidazol-2-yl)-methanone]",IC50,[1]; [8],< 0.05 µM
same,inhibition at 15 µM,[3],< 30%
"COc1ccc(C=C2CCN(C(=O)c3nc4ccc(O)cc4[nH]3)CC2)cc1 [Example 5, (6-Hydroxy-1H-benzoimidazol-2-yl)-[4-(4-methoxy-benzylidene)-piperidine-1-yl]-methanone]",IC50,[1]; [8],< 0.05 µM
same,inhibition at 15 µM,[3],52%
"O=C(c1cc2ccc(O)cc2[nH]1)N1CCC(=Cc2ccccc2)CC1 [Example 6, (4-Benzylidene-piperidine-1-yl)-(6-hydroxy-1H-indol-2-yl)-methanone]",LMA % increase,[5]; dose 3.75 mg/kg oral,0%
same,LMA % increase,[5]; dose 7.5 mg/kg oral,55%
same,LMA % increase,[5]; dose 15 mg/kg oral,69%
same,IC50,[1]; [8],0.05 to 0.5 µM
same,ED50,[2]; [7],0.43 mg/kg
same,inhibition at 15 µM,[3],< 30%
"C[C@]12N[C@H](Cc3ccccc31)c1ccccc12 [MK-801, (+)-5-Methyl-10,11-dihydro-5H-dibenzo[a,d]cyclohepten-5,10-imine]",LMA % increase,[5]; dose 0.1 mg/kg oral,114%
same,LMA % increase,[5]; dose 0.3 mg/kg oral,217%
same,ED50,[2]; po,0.15 mg/kg
"O=C(c1cc2ccc(O)cc2[nH]1)N1CCC(Cc2ccccc2)CC1 [“B”, (4-benzyl-piperidin-1-yl)-(6-hydroxy-1H-indol-2-yl)-methanone]",LMA % increase,[5]; dose 1.875 mg/kg oral,90%
same,locomotor stimulation relative to analgesic dose range (in words),[5],no separation between the doses causing analgesia and those stimulating locomotor activity
same,ED50,[2]; [7],1.7 mg/kg
(benzyl-piperidin-1-yl)-(6-hydroxy-1H-benzoimidazol-2-yl)-methanone [“A”],LMA % increase,[5]; dose 1.875 mg/kg oral,80%
same,locomotor stimulation relative to analgesic dose range (in words),[5],no separation between the doses causing analgesia and those stimulating locomotor activity
same,Formalin ED50,[2]; [7],1.6 mg/kg
